The values below come from patent US9890171B2, “Aldosterone synthase inhibitors” (Boehringer Ingelheim International GmbH, priority 2014, dated 2018).

The target in the test is aldosterone synthase (CYP11B2) (Macaca fascicularis, UniProt A0A2K5UPL9). In words: aldosterone synthase inhibition assay. The format is biochemical, cynomolgus monkey. The following applies: cynomolgus adrenal gland mitochondria, 2 μM corticosterone, aldosterone quantified by mass spectrometry. The method, then: The aldosterone synthase inhibition assay employs cynomolgus adrenal gland mitochondria as the source of aldosterone synthase (CYP11B2). Mitochondria are prepared from frozen cynomolgus monkey adrenal glands according to Method A described in by J. D. McGarry et al. (Biochem. J., 1983, 214, 21-28), with a final resuspension in the AT buffer described in R. Yamaguchi et al. (Cell Death and Differentiation, 2007, 14, 616-624), frozen as aliquots in liquid nitrogen and stored at −80° C. until use.
Chain of aldosterone synthase (CYP11B2) (A0A2K5UPL9 1-503): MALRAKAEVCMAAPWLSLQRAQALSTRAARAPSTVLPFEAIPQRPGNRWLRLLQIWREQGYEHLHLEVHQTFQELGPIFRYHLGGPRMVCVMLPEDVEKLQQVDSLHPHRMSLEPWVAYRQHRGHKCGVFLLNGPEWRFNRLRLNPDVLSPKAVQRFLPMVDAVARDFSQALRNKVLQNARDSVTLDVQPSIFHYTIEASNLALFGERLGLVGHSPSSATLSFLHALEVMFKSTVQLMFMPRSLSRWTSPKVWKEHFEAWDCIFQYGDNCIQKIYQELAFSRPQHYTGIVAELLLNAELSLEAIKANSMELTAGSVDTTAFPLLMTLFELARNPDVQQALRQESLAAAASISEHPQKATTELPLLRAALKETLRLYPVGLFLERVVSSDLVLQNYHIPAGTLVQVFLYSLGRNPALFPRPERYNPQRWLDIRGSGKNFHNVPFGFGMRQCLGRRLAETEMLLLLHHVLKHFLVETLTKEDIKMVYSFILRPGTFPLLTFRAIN
Assays are performed in 96-well format in a final volume of 60 μL/well, containing 100 mM potassium phosphate, pH 7.4, 1% (v/v) DMSO, and additionally, 2 μM of corticosterone and […] of mitochondrial protein. Reactions are started by the addition of NADPH to 1 mM and allowed to proceed for 60-90 minutes at 37° C. Reactions are terminated by the addition of […]. One hundred microliters are then transferred to a glass filter plate and centrifuged at 570×g for 5 minutes and the filtrate is collected. Reaction product aldosterone is quantified by mass spectrometry. To determine the assay blank value (0% activity), NADPH is omitted from some reactions.
Dose dependent inhibition is quantified by the inclusion of compound at various concentrations. Maximum activity (100%) is defined by reactions containing NADPH, but without compound. Activities at each concentration are expressed as a percentage of the maximum activity (y-axis) and plotted against concentration of compound (x-axis) and the concentration corresponding to 50% activity (IC50) determined using the XLFit curve-fitting program using a 4-parameter logistic model.
As a reminder, the IC50 is the midpoint of a concentration-inhibition curve. On to `O=C1CCc2cc(-c3cncc4c3COCC4O)ccc2N1` (single isomer, unassigned) [Compound 1, 6-(4-Hydroxy-3,4-dihydro-1H-pyrano[4,3-c]pyridin-8-yl)-3,4-dihydro-1H-quinolin-2-one], for which 28.9 nM corresponded to half-maximal inhibition (IC50). Next, `O=C1CCc2cc(-c3cncc4c3COCC4O)ccc2N1` (single isomer, unassigned) [Compound 2, 6-(4-Hydroxy-3,4-dihydro-1H-pyrano[4,3-c]pyridin-8-yl)-3,4-dihydro-1H-quinolin-2-one]: 101 nM.

`OC1COCc2c(-c3ccccc3)cncc21` (single isomer, unassigned) [Compound 3, 8-Phenyl-3,4-dihydro-1H-pyrano[4,3-c]pyridin-4-ol] returned a concentration for half-maximal inhibition (IC50) of 484 nM.

`N#Cc1ccc(-c2cncc3c2COCC3O)cc1` (single isomer, unassigned) [Compound 4, 4-(4-Hydroxy-3,4-dihydro-1H-pyrano[4,3-c]pyridin-8-yl)-benzonitrile] yielded an IC50 of 42 nM. For `OC1COCc2c(-c3ccccc3)cncc21` (single isomer, unassigned) [Compound 5, 8-Phenyl-3,4-dihydro-1H-pyrano[4,3-c]pyridin-4-ol] the value was 55 nM; for `N#Cc1ccc(-c2cncc3c2COCC3O)cc1` (single isomer, unassigned) [Compound 6, 4-(4-Hydroxy-3,4-dihydro-1H-pyrano[4,3-c]pyridin-8-yl)-benzonitrile], 9.8 nM. For `N#Cc1ccc(-c2cncc3c2COCC3O)cc1Cl` (single isomer, unassigned) [Compound 7, 2-Chloro-4-(4-hydroxy-3,4-dihydro-1H-pyrano[4,3-c]pyridin-8-yl)-benzonitrile] the value was 6.1 nM; for `CC(C)Oc1nc(-c2cncc3c2COCC3O)cs1` (single isomer, unassigned) [Compound 8, 8-(2-Isopropoxy-thiazol-4-yl)-3,4-dihydro-1H-pyrano[4,3-c]pyridin-4-ol], 3700 nM. The compound `Cc1n[nH]c2ccc(-c3cncc4c3COCC4O)cc12` (single isomer, unassigned) [Compound 10, 8-(3-Methyl-1H-indazol-5-yl)-3,4-dihydro-1H-pyrano[4,3-c]pyridin-4-ol] showed an IC50 of 115 nM. For `Cc1n[nH]c2cc(-c3cncc4c3COCC4O)ccc12` (single isomer, unassigned) [Compound 11, 8-(3-Methyl-1H-indazol-6-yl)-3,4-dihydro-1H-pyrano[4,3-c]pyridin-4-ol] the value was 690 nM.

As for `Cc1n[nH]c2ccc(-c3cncc4c3COCC4O)cc12` (single isomer, unassigned) [Compound 12, 8-(3-Methyl-1H-indazol-5-yl)-3,4-dihydro-1H-pyrano[4,3-c]pyridin-4-ol], the IC50 was 21 nM. For `Cc1n[nH]c2cc(-c3cncc4c3COCC4O)ccc12` (single isomer, unassigned) [Compound 13, 8-(3-Methyl-1H-indazol-6-yl)-3,4-dihydro-1H-pyrano[4,3-c]pyridin-4-ol] the value was 81 nM.

Compound `Cn1nnc2ccc(-c3cncc4c3COCC4O)cc21` (single isomer, unassigned) [Compound 14, 8-(3-Methyl-3H-benzotriazol-5-yl)-3,4-dihydro-1H-pyrano[4,3-c]pyridin-4-ol] displayed an IC50 of 15.7 nM.

In turn, `Cn1nc(F)c2ccc(-c3cncc4c3COCC4O)cc21` (single isomer, unassigned) [Compound 15, 8-(3-Fluoro-1-methyl-1H-indazol-6-yl)-3,4-dihydro-1H-pyrano[4,3-c]pyridin-4-ol] returned an IC50 of 7.8 nM. For `Cn1ncc2ccc(-c3cncc4c3COC3(CC3)C4O)cc21` (single isomer, unassigned) [Compound 16, 8-(1-methylindazol-6-yl)spiro[1,4-dihydropyrano[4,3-c]pyridine-3,1′-cyclopropane]-4-ol] the value was 12.5 nM; for `Cn1ncc2ccc(-c3cncc4c3COC3(CC3)C4O)cc21` (single isomer, unassigned) [Compound 17, 8-(1-methylindazol-6-yl)spiro[1,4-dihydropyrano[4,3-c]pyridine-3,1′-cyclopropane]-4-ol], 8 nM. For `Cn1ncc2cc(F)c(-c3cncc4c3COCC4O)cc21` (single isomer, unassigned) [Compound 18, 8-(5-Fluoro-1-methyl-1H-indazol-6-yl)-3,4-dihydro-1H-pyrano[4,3-c]pyridin-4-ol] the value was 20.1 nM. Consider `Cn1ncc2cc(F)c(-c3cncc4c3COCC4O)cc21` (single isomer, unassigned) [Compound 19, 8-(5-Fluoro-1-methyl-1H-indazol-6-yl)-3,4-dihydro-1H-pyrano[4,3-c]pyridin-4-ol], for which the IC50 was determined as 153 nM. Next, `OC1COCc2c(-c3ccc4scnc4c3)cncc21` (single isomer, unassigned) [Compound 20, 8-Benzothiazol-5-yl-3,4-dihydro-1H-pyrano[4,3-c]pyridin-4-ol]: 681 nM.

In turn, `OC1COCc2c(-c3ccc4cc[nH]c4c3)cncc21` (single isomer, unassigned) [Compound 21, 8-(1H-Indol-6-yl)-3,4-dihydro-1H-pyrano[4,3-c]pyridin-4-ol] gave an IC50 of 195 nM.

With `OC1COCc2c(-c3ccc4ncccc4c3)cncc21` (single isomer, unassigned) [Compound 22, 8-Quinolin-6-yl-3,4-dihydro-1H-pyrano[4,3-c]pyridin-4-ol], the IC50 is 64.1 nM. In the case of `Cn1ncc2cc(-c3cncc4c3COCC4O)ccc21` (single isomer, unassigned) [Compound 23, 8-(1-Methyl-1H-indazol-5-yl)-3,4-dihydro-1H-pyrano[4,3-c]pyridin-4-ol], inhibition was half-maximal at 195 nM (IC50). `OC1COCc2c(-c3ccc4cn[nH]c4c3)cncc21` (single isomer, unassigned) [Compound 24, 8-(1H-Indazol-6-yl)-3,4-dihydro-1H-pyrano[4,3-c]pyridin-4-ol] yielded an IC50 of 480 nM. For `OC1COCc2c(-c3ccc4c(c3)OCCO4)cncc21` (single isomer, unassigned) [Compound 25, 8-(2,3-Dihydro-benzo[1,4]dioxin-6-yl)-3,4-dihydro-1H-pyrano[4,3-c]pyridin-4-ol] the value was 159 nM; for `Cc1nn(C)c(C)c1-c1cncc2c1COCC2O` (single isomer, unassigned) [Compound 26, 8-(1,3,5-Trimethyl-1H-pyrazol-4-yl)-3,4-dihydro-1H-pyrano[4,3-c]pyridin-4-ol], 1500 nM; for `OC1COCc2c(-c3cnc4[nH]ccc4c3)cncc21` (single isomer, unassigned) [Compound 27, 8-(1H-Pyrrolo[2,3-b]pyridin-5-yl)-3,4-dihydro-1H-pyrano[4,3-c]pyridin-4-ol], 1300 nM. For `OC1COCc2c(-c3ccc4c(c3)OCCCO4)cncc21` (single isomer, unassigned) [Compound 28, 8-(3,4-Dihydro-2H-benzo[b][1,4]dioxepin-7-yl)-3,4-dihydro-1H-pyrano[4,3-c]pyridin-4-ol] the value was 333 nM; for `Cn1ncc2ccc(-c3cncc4c3COCC4O)cc21` (single isomer, unassigned) [Compound 29, 8-(1-Methyl-1H-indazol-6-yl)-3,4-dihydro-1H-pyrano[4,3-c]pyridin-4-ol], 48.6 nM. Compound `OC1COCc2c(-c3ccc4cnccc4c3)cncc21` (single isomer, unassigned) [Compound 30, 8-Isoquinolin-6-yl-3,4-dihydro-1H-pyrano[4,3-c]pyridin-4-ol] gave an IC50 of 54 nM.

The compound `OC1COCc2c(-c3ccc4[nH]ccc4c3)cncc21` (single isomer, unassigned) [Compound 31, 8-(1H-Indol-5-yl)-3,4-dihydro-1H-pyrano[4,3-c]pyridin-4-ol] showed an IC50 of 160 nM. For `Cn1cc(-c2cncc3c2COCC3O)cn1` (single isomer, unassigned) [Compound 32, 8-(1-Methyl-1H-pyrazol-4-yl)-3,4-dihydro-1H-pyrano[4,3-c]pyridin-4-ol] the value was 2700 nM. For `OC1COCc2c(-c3ccc4scnc4c3)cncc21` (single isomer, unassigned) [Compound 33, 8-Benzothiazol-5-yl-3,4-dihydro-1H-pyrano[4,3-c]pyridin-4-ol] the value was 40.5 nM. For `OC1COCc2c(-c3ccc4cc[nH]c4c3)cncc21` (single isomer, unassigned) [Compound 34, 8-(1H-Indol-6-yl)-3,4-dihydro-1H-pyrano[4,3-c]pyridin-4-ol] the value was 17.3 nM.

The compound `OC1COCc2c(-c3ccc4ncccc4c3)cncc21` (single isomer, unassigned) [Compound 35, 8-Quinolin-6-yl-3,4-dihydro-1H-pyrano[4,3-c]pyridin-4-ol] displayed an IC50 of 9.7 nM. For `Cn1ncc2cc(-c3cncc4c3COCC4O)ccc21` (single isomer, unassigned) [Compound 36, 8-(1-Methyl-1H-indazol-5-yl)-3,4-dihydro-1H-pyrano[4,3-c]pyridin-4-ol] the value was 17.5 nM.
